Source: patent US10278965B2, “Method of detecting cancer stem cell, method of screening cancer stem cell, and method of inhibiting cancer stem cell” (CANON KABUSHIKI KAISHA, priority 2012, dated 2019)

Columns and labels:
[1] = Measurement of fluorescent property of compound; assay type: physicochemical; settings: 5 μM DMSO solution
Procedure: The excitation wavelength and fluorescence wavelength of the compound were measured by a FL4500 spectrofluorometric measuring machine manufactured by Hitachi High-Technologies Corporation.

[2] = tested on: Prostatic cancer cells, PC-3; experiment: Cancer cell inhibitory (growth suppressive) action against prostatic cancer cells, CellTiter-Glo viable cell count; assay type: cell-based; settings: PC-3, 10 μg/mL, 24 hours
Procedure: Prostatic cancer cells, PC-3, were pre-cultured in RPMI1640 medium containing 10% FBS at 37° C. in a 5% CO2 ambient. Thereafter, 4,000 cells were seeded per well of a 96-well plate and further cultured for 24 hours. Subsequently, Compound (1) was added to the medium so as to obtain a final concentration of 10 μg/mL and cultured at 37° C. for 24 hours in a 5% CO2 ambient. The cultured cells were analyzed for viable cell count according to Cell Titer-Glo Luminescent Cell Viability Assay (manufactured by Promega KK.).
Viable cell count was analyzed in the same manner as in Experimental Example 24 except that Compound (1) of Experimental Example 24 was changed to each compound shown in Table 2.
Viable cell count was analyzed in the same manner as in Experimental Example 24 except that Compound (1) of Experimental Example 24 was changed to each of Comparative compounds 1 to 4, to obtain growth rates.
Note that the growth rate used in Examples refers to the rate (expressed by percentage) of viable cell count after culture relative to the number of cells at the initiation of cell culture. Evaluation criteria are the same as in the above experiments.

[3] = tested on: Human pancreas cancer cells, KLM-1; experiment: Cancer cell inhibitory (growth suppressive) action against pancreatic cancer cells, CellTiter-Glo viable cell count; settings: KLM-1, 10 μg/mL, 24 hours
Procedure: Human pancreas cancer cells, KLM-1, were pre-cultured in RPMI1640 medium containing 10% FBS at 37° C. in a 5% CO2 ambient. Thereafter, 4,000 cells were seeded per well of a 96-well plate and further cultured for 24 hours. […] The cultured cells were analyzed for viable cell count according to CellTiter-Glo Luminescent Cell Viability Assay (manufactured by Promega KK.).
Evaluation of cancer cell inhibition against the pancreatic cancer cells (KLM-1) (growth suppression) was made based on the following criteria. Note that the growth rate used in Examples refers to the rate (expressed by percentage) of viable cell count after culture relative to the number of cells at the initiation of cell culture.

[4] = tested on: Human chronic myelocytic leukemia cells, K562, ALDH (+) fraction (cancer stem cells); experiment: Cancer stem-cell selective inhibitory action against chronic myelocytic leukemia cells, ALDH (+) fraction; assay type: cell-based; settings: 24 hours; for ALDH(+) Superiority evaluation / ALDH(+)/ALDH(−): K562, 10 μg/ml; for ALDH(+) growth rate / Growth suppression evaluated: K562 ALDH(+), 10 μg/ml
Procedure: (§1) Human chronic myelocytic leukemia cells, K562, were pre-cultured in RPMI1640 medium containing 10% FBS at 37° C. in a 5% CO2 ambient. Then, a fraction containing 80% or more of cancer stem cells was extracted by use of a cancer stem cell marker, ALDEFLUOR reagent (manufactured by VERITAS Corporation) and FACSAria flow cytometry (manufactured by Nippon Becton, Dickinson and Company). […] The cultured cells were analyzed for viable cell count according to CellTiter-Glo Luminescent Cell Viability Assay (manufactured by Promega KK.). […] Note that hereinafter, an ALDEFLUOR reagent positive fraction (deemed as cancer stem cells) is represented by ALDH (+), whereas an ALDEFLUOR reagent negative fraction (not deemed as cancer stem cells) is represented by ALDH (−), in some cases.
(§2) Further, the growth suppressive effect of cancer stem cells was evaluated based on the following criteria. Note that the growth rate in Examples is a value obtained by dividing viable cell count after culture by the number of cells at the initiation time of culture.

[5] = tested on: Human chronic myelocytic leukemia cells, K562, ALDH (−) fraction (general cancer cells); experiment: Cancer stem-cell selective inhibitory action against chronic myelocytic leukemia cells, ALDH (−) fraction; assay type: cell-based; settings: K562 ALDH(−), 10 μg/ml, 24 hours
Procedure: as §1, §2

[6] = tested on: KLM1-KOr cells, ALDH (+) fraction, transplanted to zebra young fish; experiment: Cancer metastasis suppressive effect in cancer cell metastatic foci (region within 300 to 450 μm from a transplanted tumor); assay type: in vivo; settings: 72 hours later, region within 300 to 450 μm from transplanted tumor; for Inhibition rate 100×(1−F1/F0), metastatic foci: administered to yolk sac 24 hours after transplantation (Compound (26) 745 μmol/KgBW)
Procedure: From cell strain […], in which KLM1 cells have fluorescent protein Kusabira-Orange constantly expressed, a fraction (ALDH (+)) containing 80% or more of cancer stem cells was extracted with ALDEFLUOR reagent (manufactured by VERITAS Corporation) and FACSAria flow cytometry (manufactured by Nippon Becton, Dickinson and Company). The extracted KLM1-KOr cells were transplanted to zebra young fish (MieKomachi lineage, 2 days after fertilization) and the fish were raised in a 32° C. environment. Furthermore, 24 hours after transplantation, Compound (26) (745 μmol/KgBW) was administered to yolk sac.
72 hours later, cells transplanted to the zebra young fish were observed under MZ16F fluorescent stereoscopic microscope (manufactured by Leica Microsystems) and a fluorescent image of the region within 300 to 450 μm from a transplanted tumor was photographed and then fluorescent intensity was quantified.
As a reference, the fluorescent intensity of cells, which were cultured in the same operation method as above in a medium containing a 0.1% DMSO solution in place of Compound (26), was used.
Fluorescent images were photographed in the same manner as in Experimental Example 26 except that Imatinib and Dasatinib were respectively used in place of the compound (26) in Experimental Example 75.
The inhibition rate herein was obtained according to the expression: 100×(1−F1/F0), where the fluorescent intensity of cells when a test substance was added is represented by F1, and the fluorescent intensity of cells when a reference substance (DMSO) was added is represented by F0.

| Excitation wavelength λex [1] | Fluorescence wavelength λem [1] | Structure (SMILES) | Cancer cell growth rate (%) [2] | Evaluation (cancer cell growth rate) [2] | Cancer cell growth rate (%) [3] | Evaluation (cancer cell growth rate) [3] | ALDH(+) Superiority evaluation [4] | ALDH(+)/ALDH(−) [4] | ALDH(−) growth rate [5] | ALDH(+) growth rate [4] | Growth suppression evaluated [4] | Inhibition rate 100×(1−F1/F0), metastatic foci [6] | Evaluation (inhibition rate, metastatic foci) [6] |
| --- | --- | --- | --- | --- | --- | --- | --- | --- | --- | --- | --- | --- | --- |
| 485 nm | 575 nm | CCN1/C(=C\C=C\c2sc3ccccc3[n+]2CC)Sc2ccccc21 [Compound 1] | 13.8% | A (Cancer cell growth rate is less than 20%) | 31.9% | B (Cancer cell growth rate is 20% or more and less than 50%) | B (The value of the growth rate of ALDH (+)/the growth rate of ALDH (−) is 0.8 or more and less than 0.95) | 0.87 |  |  |  |  |  |
| 560 nm | 628 nm | CCN1/C(=C\C(C)=C\c2sc3ccccc3[n+]2CC)Sc2ccccc21 [Compound 5] | 15.0% | A (Cancer cell growth rate is less than 20%) | 6.4% | A (Cancer cell growth rate is less than 20%) | A (The value of the growth rate of ALDH (+)/the growth rate of ALDH (−) is less than 0.8) | 0.79 |  |  |  |  |  |
| 491 nm | 510 nm | CCN1/C(=C\C=C\c2oc3ccccc3[n+]2CC)Oc2ccccc21 [Compound 14] |  |  |  |  | A (The value of the growth rate of ALDH (+)/the growth rate of ALDH (−) is less than 0.8) | 0.77 | 0.49 | 0.38 | A (The growth rate of ALDH (+) is less than 0.5) |  |  |
| 553 nm | 570 nm | CCN1/C(=C\C=C\C2=[N+](CC)c3ccccc3C2(C)C)C(C)(C)c2ccccc21.[I-] [Compound 22] |  |  |  |  | A (The value of the growth rate of ALDH (+)/the growth rate of ALDH (−) is less than 0.8) | 0.75 | 0.29 | 0.22 | A (The growth rate of ALDH (+) is less than 0.5) |  |  |
| 684 nm | 710 nm | CN1\C(=C/C=C/C=C/C2=[N+](C)c3ccc4ccccc4c3C2(C)C)C(C)(C)c2c1ccc1ccccc21 [Compound 26] |  |  | 8.6% | A (Cancer cell growth rate is less than 20%) |  |  |  |  |  | 80 | A (Inhibition rate is 70 or more) |
| 650 nm | 675 nm | CCCN1\C(=C/C=C/C=C/C2=[N+](CCC)c3ccccc3C2(C)C)C(C)(C)c2ccccc21 [Compound 27] | 7.7% | A (Cancer cell growth rate is less than 20%) | 6.0% | A (Cancer cell growth rate is less than 20%) | A (The value of the growth rate of ALDH (+)/the growth rate of ALDH (−) is less than 0.8) | 0.56 |  |  |  |  |  |
|  |  | CCN1/C(=C/C=C/C=C/C=C/c2oc3ccccc3[n+]2CC)Oc2ccccc21 [Compound 33] |  |  |  |  | B (The value of the growth rate of ALDH (+)/the growth rate of ALDH (−) is 0.8 or more and less than 0.95) | 0.84 | 1.00 | 0.83 | B (The growth rate of ALDH (+) is 0.5 or more and less than 0.95) |  |  |
| 638 nm | 661 nm | CCN1C=C/C(=C/C=C/c2sc3ccccc3[n+]2CC)c2ccccc21.[I-] [Compound 34] |  |  | 26.6% | B (Cancer cell growth rate is 20% or more and less than 50%) | A (The value of the growth rate of ALDH (+)/the growth rate of ALDH (−) is less than 0.8) | 0.72 | 0.67 | 0.48 | A (The growth rate of ALDH (+) is less than 0.5) |  |  |
| 679 nm | 715 nm | CCN1C=C/C(=C/C=C/c2cc[n+](CC)c3ccccc23)c2ccccc21 [Compound 46] | 17.7% | A (Cancer cell growth rate is less than 20%) | 16.7% | A (Cancer cell growth rate is less than 20%) |  |  |  |  |  |  |  |
| 830 nm | 831 nm | CN1/C(=C/C=C2\CCCC(/C=C/C3=[N+](C)c4ccc5ccccc5c4C3(C)C)=C2Cl)C(C)(C)c2c1ccc1ccccc21 [Compound 49] | 5.3% | A (Cancer cell growth rate is less than 20%) | 12.0% | A (Cancer cell growth rate is less than 20%) |  |  |  |  |  |  |  |
|  |  | CCN1/C(=C/C=C2\CCCC(/C=C/C3=[N+](CC)c4ccc(OC)cc4C34CCCCC4)=C2Oc2ccc(C(c3ccccc3)c3ccccc3)cc2)C2(CCCCC2)c2cc(OC)ccc21 [Compound 58] |  |  |  |  | B (The value of the growth rate of ALDH (+)/the growth rate of ALDH (−) is 0.8 or more and less than 0.95) | 0.82 | 0.85 | 0.70 | B (The growth rate of ALDH (+) is 0.5 or more and less than 0.95) |  |  |
|  |  | Cc1nc(Nc2ncc(C(=O)Nc3c(C)cccc3Cl)s2)cc(N2CCN(CCO)CC2)n1 [Dasatinib] |  |  |  |  |  |  |  |  |  | 36 | C (Inhibition rate is less than 50) |

| Structure (SMILES) | Excitation wavelength λex [1] | Fluorescence wavelength λem [1] | Cancer cell growth rate (%) [2] | Evaluation (cancer cell growth rate) [2] | Cancer cell growth rate (%) [3] | Evaluation (cancer cell growth rate) [3] | ALDH(+) Superiority evaluation [4] | ALDH(+)/ALDH(−) [4] | ALDH(−) growth rate [5] | ALDH(+) growth rate [4] | Growth suppression evaluated [4] | Inhibition rate 100×(1−F1/F0), metastatic foci [6] | Evaluation (inhibition rate, metastatic foci) [6] |
| --- | --- | --- | --- | --- | --- | --- | --- | --- | --- | --- | --- | --- | --- |
| CCN1/C(=C\C=C\c2ccc3ccccc3[n+]2CC)C=Cc2ccccc21.[I-] [Compound 47] | 615 nm | 637 nm | 13.8% | A (Cancer cell growth rate is less than 20%) | 8.6% | A (Cancer cell growth rate is less than 20%) |  |  |  |  |  |  |  |
